Patent publication US6174897A, “Bis-(quinolyl)-diamines” (Bayer Aktiengesellschaft, priority 1996, dated 2001)

Experiments:
[1] = molecular target: apamin binding sites / apamin receptors (bovine cerebral membrane, calf hippocampus); test: Binding of 125I-apamin to bovine cerebral membrane; settings: 125I-apamin 30 pM, calf hippocampus membranes
Procedure: 1) Binding of ^125 1I-apamine to Bovine Cerebral Membrane
Calf brains were obtained from the local abattoir. The hippocampus was prepared on ice and a membrane suspension was made up by homogenization twice in buffer (100 mM Tris-HCl, KCl 5 mM, pH 7.4) and centrifugation at 43,000×g. In a total volume of 500 μl, the incubation mixture contained 200 μg of membrane protein, 30 pM ^125 I-apamin and test substances in the concentration range 1×10^-9 to 1×10^-4 M. The non-specific binding of ^125 I-apamine was determined in the presence of 1×10^-7 M unlabelled apamin.
After preincubation for 30 min at room temperature (test substances and membrane homogenate), the samples were placed on ice for 10 min before the radioligand was added. The main incubation time was 60 min on ice. When the reaction time had elapsed, an excess of ice-cooled incubation buffer was added to each sample and the mixture was filtered with suction through cellulose acetate/nitrate membrane filters. The amount of bound ^125 I-apamin was measured with a gamma counter.

[2] = test system: apamin-sensitive potassium channels (PC12 cells); test: Non-radioactive Rb+ efflux assay in PC12 cells; type: cell-based
Procedure: 2) Non-radioactive Rb^+ Efflux Assay for the Identification of Potassium Channel Modulators
The cellular potassium in PC12 cells is exchanged with rubidium, which is not present in the cells. This exchange is performed by incubating the cells over a period of 4 h in a physiological buffer containing 5.4 mM RbCl without KCl. This rubidium subsequently serves as a tracer for potassium. The cells laden with Rb^+ in this way are washed three times and then stimulated by depolarization with 50 mM KCl to open potassium channels (10 min), causing Rb^+ to flow out of the cells into the supernatant according to the concentration gradient.
The rubidium contents in the cell supernatant and in the residual cells after they have been lysed with 1% Triton X-100 are then determined by means of atomic absorption spectroscopy. The relative proportion of rubidium in the cell supernatent (=Rb^+ efflux) is used as a measure of the potassium channel activity.
The effect of substances on the channel activity is measured by co-incubating the test substance over the ten-minute stimulation period and determining its effect on the Rb^+ efflux in the manner described above.

SMILES	Ki [1] [nM]	% inhibition of the Rb efflux ([2]; test concentration of 10 μM) [%]	% inhibition of the Rb efflux ([2]; at 1 μM) [%]
CCc1cc(NCCCCCNc2cc(CC)nc3ccccc23)c2ccccc2n1 [Example 1]	17	77	–
CCCc1cc(NCCCCCNc2cc(CCC)nc3ccccc23)c2ccccc2n1 [Example 2]	13	–	–
Cc1cccc2c(NCCCCCNc3cc(C(C)C)nc4c(C)cccc34)cc(C(C)C)nc12 [Example 4]	–	75	68
